In patent US8084455B2, “Use of a kinase inhibitor for the treatment of particular resistant tumors” (Nerviano Medical Sciences S.r.l., priority 2006, dated 2011):
Numbering of substitutions follows the chain as printed. Where two headings read alike, the source gives them in different places.

Tests used:
[1] = system: Imatinib-resistant ABL mutants; details: literature; cited from earlier work
[2] = target: T1, Wild-type ABL kinase domain (Homo sapiens, UniProt P00519); details: Table 1; displacement of probe 3.1 at 0.12 μM, 10 nM enzyme, average of three experiments
T1 sequence (P00519 229-512): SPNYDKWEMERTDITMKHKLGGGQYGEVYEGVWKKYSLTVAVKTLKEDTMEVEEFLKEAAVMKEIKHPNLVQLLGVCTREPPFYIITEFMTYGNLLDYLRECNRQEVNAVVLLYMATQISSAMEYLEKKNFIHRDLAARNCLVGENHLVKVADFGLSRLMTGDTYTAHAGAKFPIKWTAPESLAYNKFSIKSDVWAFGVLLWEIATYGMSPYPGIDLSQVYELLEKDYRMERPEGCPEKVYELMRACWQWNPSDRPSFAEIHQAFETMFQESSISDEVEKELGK
Method: (§1) In all experiments, the fluorescence signal was measured using a Fusion α-FP HT plate reader (Packard). Data analysis was performed using the Dynafit software.
(§2) In particular, titration data were fitted to the following equilibria: Enzyme+probe<==>Complex Enzyme-probe, while displacement data were fitted to the following equilibria: Enzyme+probe<==>Complex Enzyme-probe, Enzyme+Compound<==>Complex Enzyme-Compound, whereby binding of probe and compound on the enzyme are mutually exclusive (pure competitive mechanism).
(§3) The mixture of enzyme and probe was added to the previously diluted compounds. […] In agreement, affinity binding constants (KD) were determined by fitting with a pure competitive mechanism. KD values, are the average of three independent experiments.
(§4) The displacement assay was performed as described before, with 3 μM as the highest inhibitor concentration tested with dilution steps 1:1.5.

[3] = target: T1, Wild-type ABL kinase domain; details: Table 4; displacement of probe 3.2 at 3.3 μM
Method: as §2, §3
(§5) The applied conditions were the same except for the saturating probe concentration (2, 3.3 and 0.2 μM for ABL wild-type unphosphorylated (0P), wild-type and T315I, respectively) and the probe final concentration (2, 3.3 and 0.2 μM for ABL wild-type unphosphorylated (0P), wild-type and T315I, respectively).
(§6) The displacement assay was performed as described before, with 3 μM as the highest inhibitor concentration tested.

[4] = target: T2, T315I ABL mutant kinase domain (Homo sapiens, UniProt P00519, T315I); details: Table 1; displacement of probe 3.1 at 0.42 μM, 10 nM enzyme, average of three experiments
T2 sequence (P00519 229-512 T315I): T1 sequence (P00519 229-512) with T87I

[5] = target: T2, T315I ABL mutant kinase domain; details: Table 4; displacement of probe 3.2 at 0.2 μM
[6] = target: T3, Wild-type ABL 0P (unphosphorylated ABL kinase domain) (Homo sapiens, UniProt P00519); details: Table 4; displacement of probe 3.2 at 2 μM
T3 sequence (P00519 229-512): T1 sequence (P00519 229-512)
Method: as §2, §3, §5, §6

[7] = target: T3, Wild-type ABL 0P (unphosphorylated ABL kinase domain); details: Table 1; displacement of probe 3.1 at 0.15 μM, 10 nM enzyme, average of three experiments
Method: as §1, §2, §3, §4

Kd [2] [µM]	Kd [3] [µM]	Kd [4] [µM]	Kd [5] [µM]	Kd [6] [µM]	Kd [7] [µM]	Compound	activity against Imatinib-resistant ABL mutants [1]
–	–	–	–	–	–	Cc1cn(-c2cc(NC(=O)c3ccc(C)c(Nc4nccc(-c5cccnc5)n4)c3)cc(C(F)(F)F)c2)cn1 [AMN107]	active against the majority
9 ± 1.9	4.8 ± 1	2 ± 0.21	2.61 ± 0.9	6.6 ± 1.6	9.5 ± 3.4	Nc1ncnc2c1ncn2[C@@H]1O[C@H](COP(=O)(O)OP(=O)(O)OP(O)(O)=S)[C@@H](O)[C@H]1O [ATPγS]	–
